The results in this text go back to patent EP4578856A1, “HETEROCYCLIC COMPOUND” (Ubience Inc., priority 2022, dated 2024).

In test [1] the target is T1, ROCK2 protein (Homo sapiens, UniProt O75116). Put plainly: Degradation inducing activity of ROCK2 protein in HUVEC cells, Western blotting (Simple Western JESS). In kind it is cell-based. Also noted: endogenous in cells; host or cells: HUVEC (ATCC CRL-1730). The conditions noted are these: HUVEC, 24 h; for inhibition at 1 µM: degradation rate at 1 µM; for inhibition at 10 µM: degradation rate at 10 µM. The method in brief: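 HUVEC cells treated 24 h with compound at 10 µM or 1 µM, then lysed; ROCK2 quantified by capillary Western (Simple Western JESS) using rabbit mAb D1B1, normalized to total loaded protein. Degradation rate (%) calculated relative to DMSO control set at 100%, binned A ≥75%, B 50–75%, C 25–50%, D <25%.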
A general note: In western blotting, separated proteins are transferred to a membrane and probed.
Target sequence in this assay (O75116 whole entry): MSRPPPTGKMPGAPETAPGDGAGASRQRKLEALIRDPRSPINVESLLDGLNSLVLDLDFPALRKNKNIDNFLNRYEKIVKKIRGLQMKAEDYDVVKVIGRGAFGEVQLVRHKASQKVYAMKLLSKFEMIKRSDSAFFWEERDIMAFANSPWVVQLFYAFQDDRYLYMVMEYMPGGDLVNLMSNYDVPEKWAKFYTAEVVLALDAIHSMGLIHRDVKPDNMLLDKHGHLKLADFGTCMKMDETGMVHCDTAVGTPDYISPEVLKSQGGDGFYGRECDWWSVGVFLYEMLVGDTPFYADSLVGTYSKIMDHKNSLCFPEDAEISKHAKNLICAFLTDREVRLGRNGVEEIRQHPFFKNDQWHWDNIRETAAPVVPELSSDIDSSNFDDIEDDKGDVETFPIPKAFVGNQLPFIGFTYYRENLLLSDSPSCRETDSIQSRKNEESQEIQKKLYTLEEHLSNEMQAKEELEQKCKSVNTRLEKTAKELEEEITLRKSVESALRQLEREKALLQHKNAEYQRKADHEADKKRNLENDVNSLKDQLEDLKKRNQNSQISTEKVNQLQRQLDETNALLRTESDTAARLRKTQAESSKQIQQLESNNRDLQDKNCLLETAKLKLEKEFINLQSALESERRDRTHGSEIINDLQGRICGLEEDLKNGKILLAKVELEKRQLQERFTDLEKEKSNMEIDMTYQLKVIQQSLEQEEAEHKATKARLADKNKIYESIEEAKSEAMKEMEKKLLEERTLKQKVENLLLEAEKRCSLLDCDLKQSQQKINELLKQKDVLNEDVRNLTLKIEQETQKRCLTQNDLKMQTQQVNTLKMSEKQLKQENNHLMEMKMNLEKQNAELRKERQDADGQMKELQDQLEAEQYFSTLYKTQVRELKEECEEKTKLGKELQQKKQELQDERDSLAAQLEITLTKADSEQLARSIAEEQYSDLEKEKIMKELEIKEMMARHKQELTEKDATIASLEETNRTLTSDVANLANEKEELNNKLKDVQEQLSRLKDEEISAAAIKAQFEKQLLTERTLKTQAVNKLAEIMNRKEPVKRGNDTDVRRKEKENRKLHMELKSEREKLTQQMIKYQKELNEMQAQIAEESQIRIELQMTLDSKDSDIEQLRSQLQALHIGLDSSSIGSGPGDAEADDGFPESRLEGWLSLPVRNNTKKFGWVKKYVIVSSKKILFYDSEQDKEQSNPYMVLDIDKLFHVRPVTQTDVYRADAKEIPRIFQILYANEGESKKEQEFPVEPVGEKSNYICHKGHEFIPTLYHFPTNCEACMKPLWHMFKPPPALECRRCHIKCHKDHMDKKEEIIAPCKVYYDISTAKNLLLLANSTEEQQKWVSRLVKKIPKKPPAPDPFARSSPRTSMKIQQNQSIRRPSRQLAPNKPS

In test [2] the target is T1, ROCK2 protein. Put plainly: ROCK2 kinase inhibitory activity, mobility shift assay (MSA, Carna Biosciences). It is filed as biochemical. More on the design: GST (N); purchased Carna Biosciences, Inc; host or cells: baculovirus expression system. The conditions noted are these: for inhibition at 10 µM: evaluation concentration 10 µM; for inhibition at 10 µM / inhibition at 1 µM / inhibition at 0.03 µM: read-out: ROCK2 inhibition rate; for inhibition at 1 µM: evaluation concentration 1 µM; for inhibition at 0.03 µM: evaluation concentration 0.03 µM; for IC50: ROCK2 kinase. How it is done: The ROCK2 kinase inhibitory activity was measured using a mobility shift assay (MSA) provided by Carna Biosciences, Inc.
The test compound was dissolved in DMSO and further diluted with DMSO to prepare a solution having a concentration 100 times the evaluation concentration. The solution was further diluted 25 times with an assay buffer (20 mmol/L HEPES, 0.01% Triton (registered trademark) X-100, 1 mmol/L DTT, pH 7.5) to obtain a test compound solution.
The human ROCK2 kinase was expressed by fusing the catalytic domain (1 to 553 amino acids of Accession No. NP_004841.2) with GST at the N-terminus using the baculovirus expression system. GST-ROCK2 was purified by glutathione sepharose chromatography.
A 4-fold concentration substrate (LIMKtide, 1000 nmol/L) /ATP (5 µmol/L)/metal solution (Mg, 5 mmol/L) was prepared with kit buffer (20 mmol/L HEPES, 0.01% Triton (registered trademark) X-100, 5 mmol/L DTT, pH 7.5). A 2-fold concentration kinase solution was prepared with assay buffer. 5 µL of a 4-fold concentration test compound solution, 5 µL of a 4-fold concentration substrate/ATP/metal solution, and 10 µL of a 2-fold concentration kinase solution were mixed in a well of a polypropylene 384 well plate, and the mixture was reacted at room temperature for 1 hour. 70 µL of termination buffer (127 mmol/L HEPES, 0.01% Triton (registered trademark) X-100, 26.7 mmol/L EDTA-2Na, 1% DMSO, pH 7.5) was added to stop the reaction. The substrate peptide and the phosphorylated peptide in the reaction solution were separated and quantified using a LabChip (trademark) system (Perkin Elmer).
The kinase reaction was evaluated by the product ratio (P/(P + S)) calculated from the substrate peptide peak height (S) and the phosphorylated peptide peak height (P).
The average signal of the control well including all the reaction components was set to 0% suppression, the average signal of the background well (no enzyme added) was set to 100% suppression, and the inhibition rate was calculated from the average signal of the test compound test well.
The ROCK2 inhibition rate and the evaluation concentration of the test compound are shown in Table 4-1, and the IC50 value of the inhibitory activity is shown in Table 4-2. […]
Target sequence in this assay (O75116 1-553): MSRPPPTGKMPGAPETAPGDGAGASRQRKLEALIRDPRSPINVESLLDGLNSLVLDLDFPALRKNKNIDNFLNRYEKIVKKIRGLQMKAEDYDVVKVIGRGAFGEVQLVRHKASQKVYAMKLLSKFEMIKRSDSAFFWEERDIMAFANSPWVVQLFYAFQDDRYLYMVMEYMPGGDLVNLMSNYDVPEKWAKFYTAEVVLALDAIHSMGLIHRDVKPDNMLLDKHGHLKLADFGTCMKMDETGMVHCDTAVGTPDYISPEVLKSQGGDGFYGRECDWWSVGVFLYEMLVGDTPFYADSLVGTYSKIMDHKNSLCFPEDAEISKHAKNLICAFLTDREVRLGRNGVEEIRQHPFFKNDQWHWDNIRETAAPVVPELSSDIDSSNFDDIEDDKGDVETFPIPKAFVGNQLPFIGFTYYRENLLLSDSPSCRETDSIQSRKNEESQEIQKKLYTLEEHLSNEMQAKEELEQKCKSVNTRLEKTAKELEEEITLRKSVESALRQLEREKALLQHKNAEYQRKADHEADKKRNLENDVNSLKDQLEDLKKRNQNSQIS

Molecules are shown by their SMILES.

At ROCK2 protein [1], `C[C@@H]1CN(CC(=O)N2CC(C)(C)c3ncc(Cc4ccc(F)cc4)cc32)[C@@H](CN(C)CCOCCOCCOCCN[C@H](C)c2ccc(C(=O)Nc3ccncc3)cc2)CN1` [Example 3, 4-((R)-1-((2R,5R)-1-(2-(6-(4-Fluorobenzyl)-3,3-dimethyl-2,3-dihydro-1H-pyrrolo[3,2-b]pyridin-1-yl)-2-oxoethyl)-5-methylpiperazin-2-yl)-2-methyl-5,8,11-trioxa-2,14-diazahexadecan-15-yl)-N-(pyridin-4-yl)benzamide] displayed an inhibition at 1 µM of 50 to 75% and an inhibition at 10 µM not below 75%. Besides, on ROCK2 protein [2], the inhibition at 10 µM was not below 75%.
`C[C@@H]1CN(CC(=O)N2CC(C)(C)c3ncc(Cc4ccc(F)cc4)cc32)[C@@H](CN(C)CCOCCOCCN[C@H](Cc2cccc(F)c2)C(=O)Nc2ccc(-c3ccncc3)cc2)CN1` [Example 9, (R)-12-(3-Fluorobenzyl)-1-((2R,5R)-1-(2-(6-(4-fluorobenzyl)-3,3-dimethyl-2,3-dihydro-1H-pyrrolo[3,2-b]pyridin-1-yl)-2-oxoethyl)-5-methylpiperazin-2-yl)-2-methyl-N-(4-(pyridin-4-yl)phenyl)-5,8-dioxa-2,11-diazatridecan-13-amide]: at ROCK2 protein [1], the inhibition at 1 µM was less than 25% and the inhibition at 10 µM was not below 75%. The inhibition at 1 µM on ROCK2 protein [2] fell in the range of 25 to 50%.
Take `C[C@@H]1CN(CC(=O)N2CC(C)(C)c3ncc(Cc4ccc(F)cc4)cc32)[C@@H](CN(C)CCOCCOCCNC[C@@H](C(=O)Nc2ccc3cnccc3c2)c2ccccc2)CN1` [Example 16, (S)-1-((2R,5R)-1-(2-(6-(4-Fluorobenzyl)-3,3-dimethyl-2,3-dihydro-1H-pyrrolo[3,2-b]pyridin-1-yl)-2-oxoethyl)-5-methylpiperazin-2-yl)-N-(isoquinolin-6-yl)-2-methyl-13-phenyl-5,8-dioxa-2,11-diazatetradecan-14-amide]: on ROCK2 protein [1], the inhibition at 1 µM lay in the range of 25 to 50% and the inhibition at 10 µM is not below 75%. For the same molecule, the inhibition at 0.03 µM on ROCK2 protein [2] lay within 50 to 75%.
Take `COC[C@H]1CN[C@H](C)CN1CC(=O)N1CC(C)(C)c2nc(CN(C)CCOCCOCCOCCN[C@H](C)c3ccc(C(=O)Nc4ccncc4)cc3)c(Cc3ccc(F)cc3)cc21` [Example 24, 4-((R)-1-(6-(4-Fluorobenzyl)-1-(2-((2R,5R)-2-(methoxymethyl)-5-methylpiperazin-1-yl)acetyl)-3,3-dimethyl-2,3-dihydro-1H-pyrrolo[3,2-b]pyridin-5-yl)-2-methyl-5,8,11-trioxa-2,14-diazahexadecan-15-yl)-N-(pyridin-4-yl)benzamide]: on ROCK2 protein [1], the inhibition at 1 µM is not below 75% and the inhibition at 10 µM lay in the range of 50 to 75%. Besides, on ROCK2 protein [2], the inhibition at 10 µM was not below 75%.
Consider `COC[C@H]1CN[C@H](C)CN1CC(=O)N1CC(C)(C)c2nc(CN(C)CCOCCOCCOCCN[C@H](Cc3cccc(F)c3)C(=O)Nc3ccc(-c4ccncc4)cc3)c(Cc3ccc(F)cc3)cc21` [Example 31, (R)-15-(3-Fluorobenzyl)-1-(6-(4-fluorobenzyl)-1-(2-((2R,5R)-2-(methoxymethyl)-5-methylpiperazin-1-yl)acetyl)-3,3-dimethyl-2,3-dihydro-1H-pyrrolo[3,2-b]pyridin-5-yl)-2-methyl-N-(4-(pyridin-4-yl)phenyl)-5,8,11-trioxa-2,14-diazahexadecan-16-amide], for which, at ROCK2 protein [1], the inhibition at 1 µM lay within 50 to 75% and the inhibition at 10 µM fell in the range of 50 to 75%. Moreover, on ROCK2 protein [2], the inhibition at 1 µM lay in the range of 25 to 50%.
Take `COC[C@H]1CN[C@H](C)CN1CC(=O)N1CC(C)(C)c2nc(CN(C)CCOCCNC[C@@H](C(=O)Nc3ccc4cnccc4c3)c3ccccc3)c(Cc3ccc(F)cc3)cc21` [Example 36, (S)-3-((2-(2-(((6-(4-Fluorobenzyl)-1-(2-((2R,5R)-2-(methoxymethyl)-5-methylpiperazin-1-yl)acetyl)-3,3-dimethyl-2,3-dihydro-1H-pyrrolo[3,2-b]pyridin-5-yl)methyl)(methyl)amino)ethoxy)ethyl)amino)-N-(isoquinolin-6-yl)-2-phenylpropanamide]: at ROCK2 protein [1], the inhibition at 1 µM lay within 25 to 50% and the inhibition at 10 µM is not below 75%. Besides, the inhibition at 0.03 µM on ROCK2 protein [2] lay in the range of 50 to 75%.
As to `COC[C@H]1CN[C@H](C)CN1CC(=O)N1CC(C)(C)c2ncc(Cc3cccc(OCCOCCOCCOCCOCCOCCOCCN[C@H](C)c4ccc(C(=O)Nc5ccncc5)cc4)c3)cc21` [Example 48, 4-((R)-23-(3-((1-(2-((2R,5R)-2-(Methoxymethyl)-5-methylpiperazin-1-yl)acetyl)-3,3-dimethyl-2,3-dihydro-1H-pyrrolo[3,2-b]pyridin-6-yl)methyl)phenoxy)-6,9,12,15,18,21-hexaoxa-3-azatricosan-2-yl)-N-(pyridin-4-yl)benzamide], on ROCK2 protein [1], the inhibition at 1 µM was 50 to 75% and the inhibition at 10 µM fell in the range of 50 to 75%. Besides, the inhibition at 10 µM at ROCK2 protein [2] is not below 75%.
On to `COC[C@H]1CN[C@H](C)CN1CC(=O)N1CC(C)(C)c2ncc(Cc3cccc(OCCOCCOCCOCCOCCOCCOCCOCCN[C@H](Cc4cccc(F)c4)C(=O)Nc4ccc(-c5ccncc5)cc4)c3)cc21` [Example 56, (R)-2-(3-Fluorobenzyl)-26-(3-((1-(2-((2R,5R)-2-(methoxymethyl)-5-methylpiperazin-1-yl)acetyl)-3,3-dimethyl-2,3-dihydro-1H-pyrrolo[3,2-b]pyridin-6-yl)methyl)phenoxy)-N-(4-(pyridin-4-yl)phenyl)-6,9,12,15,18,21,24-heptaoxa-3-azahexacosanamide], for which the figures for the inhibition at 1 µM at ROCK2 protein [1] and on ROCK2 protein [2] were 50 to 75% and less than 25%, respectively. Also, the inhibition at 10 µM against ROCK2 protein [1] is 50 to 75%.
On to `COC[C@H]1CN[C@H](C)CN1CC(=O)N1CC(C)(C)c2ncc(Cc3ccccc3OCCOCCOCCOCCNC[C@@H](C(=O)Nc3ccc4cnccc4c3)c3ccccc3)cc21` [Example 80, (S)-N-(Isoquinolin-6-yl)-1-(2-((1-(2-((2R,5R)-2-(methoxymethyl)-5-methylpiperazin-1-yl)acetyl)-3,3-dimethyl-2,3-dihydro-1H-pyrrolo[3,2-b]pyridin-6-yl)methyl)phenoxy)-14-phenyl-3,6,9-trioxa-12-azapentadecan-15-amide], for which, on ROCK2 protein [1], the inhibition at 1 µM was 50 to 75% and the inhibition at 10 µM was not below 75%. Moreover, the inhibition at 0.03 µM at ROCK2 protein [2] is 25 to 50%.
As for `COCCOCCN[C@H](C)c1ccc(C(=O)Nc2ccncc2)cc1` [Ref.Example 10, (R)-4-(1-((2-(2-Methoxyethoxy)ethyl)amino)ethyl)-N-(pyridin-4-yl)benzamide, reference compound], the IC50 at ROCK2 protein [2] fell in the range of 3 to 10 µM.
For `COCCOCCCN[C@H](C)c1ccc(C(=O)Nc2ccncc2)cc1` [Ref.Example 11, (R)-4-(1-((3-(2-Methoxyethoxy)propyl)amino)ethyl)-N-(pyridin-4-yl)benzamide, reference compound], the IC50 at ROCK2 protein [2] fell in the range of 3 to 10 µM.
In the case of `COCCOCCN[C@H](Cc1cccc(F)c1)C(=O)Nc1ccc(-c2ccncc2)cc1` [Ref.Example 12, (R)-3-(3-Fluorophenyl)-2-((2-(2-methoxyethoxy)ethyl)amino)-N-(4-(pyridin-4-yl)phenyl)propanamide, reference compound], the IC50 at ROCK2 protein [2] fell in the range of 0.3 to 3 µM.
For `COCCOCCCN[C@H](Cc1cccc(F)c1)C(=O)Nc1ccc(-c2ccncc2)cc1` [Ref.Example 13, (R)-3-(3-Fluorophenyl)-2-((3-(2-methoxyethoxy)propyl)amino)-N-(4-(pyridin-4-yl)phenyl)propanamide, reference compound], at ROCK2 protein [2], the IC50 lay within 0.03 to 0.3 µM.
On the same count and under the same terms, with `COCCOCCNC[C@@H](C(=O)Nc1ccc2cnccc2c1)c1ccccc1` [Ref.Example 14, (S)-N-(Isoquinolin-6-yl)-3-((2-(2-methoxyethoxy)ethyl)amino)-2-phenylpropanamide, reference compound] the figure was less than 0.03 µM.
Take `COCCOCCCNC[C@@H](C(=O)Nc1ccc2cnccc2c1)c1ccccc1` [Ref.Example 15, (S)-N-(Isoquinolin-6-yl)-3-((3-(2-methoxyethoxy)propyl)amino)-2-phenylpropanamide, reference compound]: the IC50 on ROCK2 protein [2] was less than 0.03 µM.

What is called inhibition is the change of the read-out against control, counted positive when it falls. As a reminder, the IC50 is the concentration that gives 50% inhibition.
